Consider 15 molecules from patent US7989450B2, “Functionalized diarylisoxazoles inhibitors of ciclooxygenase” (Universita' Degli Studi Di Bari, priority 2008, dated 2011).

Series [1] addresses T1, platelet COX-1 (Homo sapiens, UniProt P23219).
T1 construct: 1 ml aliquots of whole blood were immediately transferred into glass test tubes and left to coagulate at 37° C; endogenous in cells; host or cells: platelets in whole blood of healthy human volunteers
Put plainly: Biosynthesis of TXB2 in human whole blood left to coagulate, index of platelet COX-1 activity. It counts as cell-based. As to conditions: human whole blood method, coagulation 1 hour at 37° C., TXB2 by RIA.
Experimental: (§1) Fourteen healthy volunteers (25-34 years) were enrolled to take part in the study and were studied on various occasions. Peripheral venous blood samples were taken from donors who had not taken FANS in the 2 weeks prior to the study.
1 ml aliquots of whole blood were immediately transferred into glass test tubes and left to coagulate at 37° C. for 60 minutes.

Series [2] deals with T2, monocyte COX-2 induced by LPS (Homo sapiens, UniProt P35354).
T2 construct: incubated with heparinised whole blood in the presence of LPS (10 microg/ml) for 24 hours at 37° C; endogenous in cells; host or cells: LPS-stimulated monocytes in heparinised whole blood of healthy human volunteers
T2 sequence (P35354 18-604): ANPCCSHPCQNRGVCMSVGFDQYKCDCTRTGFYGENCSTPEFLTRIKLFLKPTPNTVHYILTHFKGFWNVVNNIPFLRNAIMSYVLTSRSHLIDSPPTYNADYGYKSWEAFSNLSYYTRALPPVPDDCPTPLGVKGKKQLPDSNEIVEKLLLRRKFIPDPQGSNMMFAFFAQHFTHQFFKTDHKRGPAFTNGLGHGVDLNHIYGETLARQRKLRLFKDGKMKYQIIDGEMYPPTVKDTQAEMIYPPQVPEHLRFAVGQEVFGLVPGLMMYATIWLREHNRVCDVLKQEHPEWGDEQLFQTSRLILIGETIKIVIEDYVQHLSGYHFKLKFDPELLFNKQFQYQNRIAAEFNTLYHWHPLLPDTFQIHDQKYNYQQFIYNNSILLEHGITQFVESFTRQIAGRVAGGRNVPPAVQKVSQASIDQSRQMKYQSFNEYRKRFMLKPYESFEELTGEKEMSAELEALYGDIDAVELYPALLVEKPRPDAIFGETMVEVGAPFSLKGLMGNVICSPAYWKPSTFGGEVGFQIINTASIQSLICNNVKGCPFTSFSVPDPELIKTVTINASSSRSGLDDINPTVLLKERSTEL
As to the kind of experiment: Biosynthesis of PGE2 in LPS-stimulated human whole blood, index of monocyte COX-2 activity. Type of series: cell-based. As to conditions: human whole blood method, 24 hours at 37° C.; for IC50: LPS 10 microg/ml, PGE2 by RIA.
Experimental: as §1
Biosynthesis of PGE2 in the Whole Blood as an Index of Monocyte COX-2 Activity Induced by LPS.
Aliquots of 1 ml of whole blood taken from the cubital vein with a syringe containing heparin (20 IU/ml blood) were incubated with lipopolysaccharide (LPS, from Escherichia coli 026:B6; Sigma Chemical Company, St. Louis, Mo.) (10 μg/ml) for 24 hours at 37° C. The plasma was separated by centrifugation and kept at −70° C. The PGE2 was measured with a specific radioimmunological assay (RIA) as an index of monocyte COX-2 activity induced by LPS.

The conditions of series [3]: secondary prevention, various groups of patients; cited from earlier work.

Molecules are shown by their SMILES.

T1 sequence (P23219 24-599): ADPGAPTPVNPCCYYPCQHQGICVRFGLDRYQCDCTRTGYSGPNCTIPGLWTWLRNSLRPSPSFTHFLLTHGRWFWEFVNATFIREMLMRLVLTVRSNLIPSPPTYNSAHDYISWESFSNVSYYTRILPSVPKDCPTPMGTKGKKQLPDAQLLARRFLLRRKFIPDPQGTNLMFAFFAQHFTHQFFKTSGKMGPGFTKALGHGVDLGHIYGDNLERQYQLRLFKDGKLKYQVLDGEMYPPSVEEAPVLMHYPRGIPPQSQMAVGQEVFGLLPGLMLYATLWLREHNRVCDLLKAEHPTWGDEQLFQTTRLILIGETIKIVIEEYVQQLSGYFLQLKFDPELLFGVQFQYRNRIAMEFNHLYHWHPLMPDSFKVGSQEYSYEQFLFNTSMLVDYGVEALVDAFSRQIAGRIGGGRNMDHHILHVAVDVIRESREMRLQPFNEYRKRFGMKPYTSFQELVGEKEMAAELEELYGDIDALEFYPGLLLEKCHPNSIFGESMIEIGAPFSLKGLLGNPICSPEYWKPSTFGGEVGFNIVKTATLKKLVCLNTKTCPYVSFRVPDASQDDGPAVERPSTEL

For the molecule `CC1(O)ON=C(c2ccc(Cl)o2)C1c1ccc(F)cc1` (stereo not drawn) [Example 2, 3-(5-Chlorofuran-2-yl)-4-(4-fluorophenyl)-5-hydroxy-5-methyl-2-isoxazoline], the melting point – broadly, the temperature of the solid-liquid transition – fell in the range of 101 to 102 °C. In turn, `FC(F)(F)c1onc(-c2ccc(Cl)o2)c1-c1ccccc1` [Example 5, 3-(5-Chlorofuran-2-yl)-4-phenyl-5-(trifluoromethyl)isoxazole] came in with a melting point of 55 to 57 °C. The half-inhibitory concentration (IC50) (commonly the concentration that gives 50% inhibition) in series [1] is 0.81 µM. In series [2], this molecule gave an IC50 of more than 100 µM. On the same counts, the results for `Cc1onc(-c2ccc(Cl)o2)c1-c1ccc(F)cc1` [Example 6, 3-(5-Chlorofuran-2-yl)-4-(4-fluorophenyl)-5-methylisoxazole] are 103.7 to 105.2 °C, 1.9 µM and more than 100 µM. With `Cc1onc(-c2ccc(Cl)o2)c1-c1ccccc1F` [Example 7, 3-(5-Chlorofuran-2-yl)-4-(2-fluorophenyl)-5-methylisoxazole], the IC50 in series [1] is 1.9 µM; in series [2], more than 100 µM.

In the case of `Cc1onc(-c2ccco2)c1-c1ccccc1` [Example 12, 3-(Furan-2-yl)-4-phenyl-5-methylisoxazole], the melting point fell in the range of 93 to 96 °C.

On to `Cc1onc(-c2ccc(Br)o2)c1-c1ccccc1` [Example 14, 3-(5-Bromofuran-2-yl)-4-phenyl-5-methylisoxazole], for which the melting point lay within 93 to 96 °C. Same read-out and setting: the value for `O=C(O)c1onc(-c2ccc(Cl)o2)c1-c1ccccc1` [Example 15, [3-(5chlorofuran-2-yl)-4-phenylisoxazol-5-yl]carboxylic acid] was 168 to 170 °C.

Take `COC(=O)c1onc(-c2ccc(Cl)o2)c1-c1ccccc1` [Example 16, Methyl [3-(5-chlorofuran-2-yl)-4-phenylisoxazol-5-yl]carboxylate]: the melting point is 130 to 131 °C. On to `OCc1onc(-c2ccc(Cl)o2)c1-c1ccccc1` [Example 17, 3-(5-Chlorofuran-2-yl)-4-phenyl-5-hydroxymethylisoxazole], for which the melting point was 102 to 103 °C. In series [1], this molecule showed a half-maximal inhibitory concentration (IC50) of 4.2 µM. In addition, in series [2] (100 μM, LPS, read-out: COX-2 inhibition (I) at 100 μM), the inhibition (usually how much of the control response was suppressed) at 100 µM is 44%. Take `CC(=O)OCc1onc(-c2ccc(Cl)o2)c1-c1ccccc1` [Example 18, 5-Acetoxymethyl-3-(5-chlorofuran-2-yl)-4-phenylisoxazole]: the values for the IC50 in series [1] and in series [2] were 5.2 µM and more than 100 µM, respectively.

Take `O=C(OCCCN1CCOCC1)c1onc(-c2ccc(Cl)o2)c1-c1ccccc1` [Example 19, 3-(Morpholin-1-yl)propyl[3-(5-chlorofuran-2-yl)-4-phenylisoxazol-5-yl]carboxilate]: the melting point was in the range of 82 to 83.7 °C. Same read-out and setting: to `O=C(OCCCBr)c1onc(-c2ccc(Cl)o2)c1-c1ccccc1` [Example 20, 3-Bromopropyl[3-(5-chlorofuran-2-yl)-4-phenylisoxazol-5-yl]carboxylate] belongs 100 to 101 °C. In turn, `O=C(OCCCO[N+](=O)[O-])c1onc(-c2ccc(Cl)o2)c1-c1ccccc1` [Example 21, 3-(Nitroxy)propyl[3-(5-chlorofuran-2-yl)-4-phenylisoxazol-5-yl]carboxylate] showed a melting point of 79 to 79.8 °C. With `COC(=O)c1c(-c2ccc(Cl)o2)noc1-c1ccccc1` [Example 22, Methyl3[-(5-chlorofuran-2-yl)-5-phenylisoxazol-4-yl]carboxylate], the melting point is 113 to 117 °C (dec.). With `CC(=O)Oc1ccccc1C(=O)O` [aspirin, acetylsalicylic acid], in series [3], the “prevention of non fatal vascular events” value is on record as 25-30% and the “prevention of vascular death” value is 15-20%.
